# Experiments:
# [1] = test system: Human ES cells; experiment: TH+ cell immunostaining of adhered human ES cell embryoid bodies; assay type: cell-based; details: for formation of TH+ cells (in words): human ES embryoid bodies adhered and differentiated
# Method: Collagenase/trypsin passaged ES cells were prepared as a single cell suspension and seeded at a density of 150 cells/μl in low attachment TC dishes (Costar). Cell aggregates were split 1:3 at day 2 and possibly at day 3 if required. Cultures were feed daily for 9 days and on day 9 bodies were transferred to poly-L-ornithine/laminin coated 24 well trays in 0.5 ml of medium if adhesive culture was to be conducted. Another 0.5 ml media was added to each well after 24 hours incubation. Adhered cultures or suspension cultures were fed daily for a further 8 days.
# Embryoid bodies or neurospheres/aggregates are allowed to settle onto a coated surface to allow differentiation to occur (4 to 8 days). The coating can be on a plastic surface in either a tray or a coated coverslip.
# The ability of basic media with supplements (DMEM +N2 or ITSS) to promote neural differentiation of hES cells was compared with medium that included F12: (DMEM:F12 (1:1) +N2 or ITSS)
# Trypsinised Human ES cells were seeded at approximately 10 to 20 cells/μl of media into 10 ml of neurosphere media (DMEM:F12, 10 μg/ml heparin (SIGMA), 1/50 B27(GIBCO), 1/100 pen/strep, 1/100 ITSS) in a T75 culture flask. 10 ng/ml FGF2 was optionally added but the culture medium was preferably mitogen-free (no FGF2). Cultures were maintained in the media for 9 days after which the embryoid bodies were optionally transferred to poly-L-ornithine/laminin plates and cultured in the same media for a further 6 days. The embryoid bodies so formed (EB^15) whether from adherent or suspension culture, were then triturated to near single cell form and used for either transplantation or for the formation of neurospheres/cell reaggregates.
# Example 5 was repeated utilising human ES cells and a minimal media consisting of DMEM and 100 μM L-proline as outlined in the schematic of FIG. 12. Results were similar to those described in Example 5.
# [2] = test system: mouse ES cells; experiment: Neural versus non-neural differentiation and neural complexity scoring of mouse ES cell embryoid bodies; assay type: cell-based; details: RA doses 1 μM and 10 nM compared with 100 nM
# From the text: FIG. 2A is a graph that illustrates the level of neural differentiation when retinoic acid and MEDII are and are not present. The first column (ICb−RA) used a standard media (ICb, see Example 2), where a high percentage of non-neural tissue (scored as beating muscle) was observed. […] The third column used a 50% MEDII conditioned media but without RA supplementation. […] The fourth column used 50% MEDII supplemented with RA.
# FIG. 2B is similar to FIG. 2A except the level of neural complexity was scored. A score of 1 to 3 was assigned depending upon the neuronal complexity (number of neurites and networking emanating from the body), with a score of 3 for the most complex.
# Single cell suspensions of mouse ES cells were cultured for 4 days in standard culture media (ICb) or in the presence of 50% MEDII. The standard conditioning media (ICb) contains 90 ml DMEM, 10 ml of foetal calf serum, 1 ml glutamine (0.1M stock at 1/100 dilution) and 100 ul of β-Mercaptoethanol (0.1M stock at 1/1000 dilution). The culture process involved media changes on days 2 and 4 involving a ½ splitting of the cell aggregates. […] This media change occurred every day for three days (i.e to EBM^7). By the end of this period the morphological differences in treatment when supplemented with combinations of 50% MEDII and/or RA were apparent. […]
Compound,formation of TH+ cells (in words) [1],"proportion of TH+ cells ([1]; human ES embryoid bodies, 9 days suspension then adherent culture on laminin, with N2 or ITSS, L-proline 100 μM in DMEM) [%]",uniformity of RA effect on embryoid bodies [2]
FGF2: fibroblast growth factor,little impact on the generation of TH+ cells,,
O=C(O)[C@@H]1CCCN1 [L-proline],high numbers of TH+cells,~50,
"CC1=C(/C=C/C(C)=C/C=C/C(C)=C/C(=O)O)C(C)(C)CCC1 [RA, (all-E)-3,7-dimethyl-9-(2,6,6-trimethyl-1-cyclohexen-1-yl)-2,4,6,8-nonatetraenoic acid]",,,not as uniform as seen with 100 nM RA
